From patent US20250213705A1, “PSMA TARGETING LIGANDS AND METHODS OF USE” (Bright Peak Therapeutics AG, priority 2023, published 2025)
Blank lines part the entries; values can stand above or below the molecule they belong to.

Molecular target: Recombinant Human PSMA/FOLH1 Protein (Homo sapiens (Human), UniProt Q04609)
Assay: Inhibition assay (Amplex Red glutamic acid/glutamate oxidase, NAAG substrate)
Format: biochemical
Settings: Target PSMA, average of N replicates; for IC50: PSMA 5 nM, NAAG 40 μM; for Ki: calculated based on Cheng-Prusoff equation
Experimental: Amplex™ Red Glutamic Acid/Glutamate Oxidase Assay Kit Catalog number: A12221 (Thermofisher); Recombinant Human PSMA/FOLH1 Protein, CF (rnd systems); N-Acetyl-Asp-Glu (NAAG) (Sigma Aldrich; 96 well half area plate; Enspire plate reader.
Prepare a working solution of 100 μM Amplex® Red reagent containing 0.25 U/mL HRP, 0.08 U/mL L-glutamate oxidase, 0.5 U/mL 1-glutamate-pyruvate transaminase, 200 μM L-alanine and keep protected from light. […] Final concentration is 5 nM. Transfer 10 μl/well of the inhibitor solution previously prepared in a separate 96 wells/plate.
Pipette 20 μl/well of the working solution prepared above. Incubate the reactions for 30 min at 37° C., protected from light. Because the assay is continuous (not terminated), fluorescence may be measured at multiple time points to follow the kinetics of the reactions. Measure the fluorescence in a fluorescence microplate reader using excitation in the range of 530-560 nm and emission detection at ˜590 nm. Ec50s were determined with GraphPad Prism. Ki is calculated based on Cheng-Prusoff equation.

Recombinant Human PSMA/FOLH1 Protein, sequence (Q04609 whole entry): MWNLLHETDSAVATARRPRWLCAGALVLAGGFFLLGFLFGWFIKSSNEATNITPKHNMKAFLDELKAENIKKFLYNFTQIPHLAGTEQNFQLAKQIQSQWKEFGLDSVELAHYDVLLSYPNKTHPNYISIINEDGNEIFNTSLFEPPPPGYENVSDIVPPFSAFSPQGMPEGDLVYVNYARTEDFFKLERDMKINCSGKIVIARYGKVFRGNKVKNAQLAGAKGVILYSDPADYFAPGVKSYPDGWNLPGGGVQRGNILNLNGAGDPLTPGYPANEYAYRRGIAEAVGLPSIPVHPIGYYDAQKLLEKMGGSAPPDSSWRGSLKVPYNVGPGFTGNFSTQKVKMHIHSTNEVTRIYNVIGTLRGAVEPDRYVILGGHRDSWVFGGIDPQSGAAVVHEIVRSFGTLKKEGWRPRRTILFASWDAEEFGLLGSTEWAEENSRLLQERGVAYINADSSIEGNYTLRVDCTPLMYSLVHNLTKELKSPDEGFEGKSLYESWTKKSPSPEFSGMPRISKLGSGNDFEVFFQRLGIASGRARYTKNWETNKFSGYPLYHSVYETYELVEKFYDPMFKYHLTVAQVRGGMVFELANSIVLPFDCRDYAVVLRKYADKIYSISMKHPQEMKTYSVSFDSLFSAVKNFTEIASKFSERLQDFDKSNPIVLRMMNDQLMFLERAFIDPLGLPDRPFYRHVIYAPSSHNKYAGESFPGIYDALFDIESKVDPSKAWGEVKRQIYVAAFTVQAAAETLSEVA

Structure (SMILES): CC(=O)NCCOCCOCCOCCC(=O)NC[C@H]1CC[C@H](C(=O)N[C@@H](Cc2ccc3ccccc3c2)C(=O)NCCCC[C@H](NC(=O)N[C@@H](Cc2cnc[nH]2)C(=O)O)C(=O)O)CC1 (stereo in doubt) [Compound 29]
- IC50: 576 µM
- Ki: 4.12 µM

Structure (SMILES): CC(=O)NCCOCCOCCOCCC(=O)NC[C@H]1CC[C@H](C(=O)N[C@@H](CC(C)C)C(=O)NCCCC[C@H](NC(=O)N[C@@H](CCC(=O)O)C(=O)O)C(=O)O)CC1 [Compound 1]
- IC50: 2.39 µM
- Ki: 0.0171 µM

Structure (SMILES): CC(=O)NCCOCCOCCOCCC(=O)NC[C@H]1CC[C@H](C(=O)N[C@@H](Cc2ccc(O)cc2)C(=O)NCCCC[C@H](NC(=O)N[C@@H](CCC(=O)O)C(=O)O)C(=O)O)CC1 [Compound 3]
- IC50: 0.421 µM
- Ki: 0.00301 µM

Structure (SMILES): CC(=O)NCCOCCOCCOCCC(=O)NC[C@H]1CC[C@H](C(=O)N[C@@H](C)C(=O)NCCCC[C@H](NC(=O)N[C@@H](CCC(=O)O)C(=O)O)C(=O)O)CC1 [Compound 4]
- IC50: 0.537 µM
- Ki: 0.00384 µM

Structure (SMILES): CC(=O)NCCOCCOCCOCCC(=O)NC[C@H]1CC[C@H](C(=O)N[C@@H](CCCCN)C(=O)NCCCC[C@H](NC(=O)N[C@@H](CCC(=O)O)C(=O)O)C(=O)O)CC1 [Compound 6]
- IC50: 58.2 µM
- Ki: 0.416 µM

Structure (SMILES): CC(=O)NCCOCCOCCOCCC(=O)NC[C@H]1CC[C@H](C(=O)N[C@@H](Cc2c[nH]cn2)C(=O)NCCCC[C@H](NC(=O)N[C@@H](CCC(=O)O)C(=O)O)C(=O)O)CC1 [Compound 9]
- IC50: 1.08 µM
- Ki: 0.00774 µM

Structure (SMILES): CC(=O)NCCOCCOCCOCCC(=O)NC[C@H]1CC[C@H](C(=O)N[C@@H](Cc2cn(C)cn2)C(=O)NCCCC[C@H](NC(=O)N[C@@H](CCC(=O)O)C(=O)O)C(=O)O)CC1 [Compound 11]
- IC50: 3.24 µM
- Ki: 0.0232 µM

Structure (SMILES): CC(=O)NCCOCCOCCOCCC(=O)NC[C@H]1CC[C@H](C(=O)N[C@@H](Cc2ccc(F)cc2)C(=O)NCCCC[C@H](NC(=O)N[C@@H](CCC(=O)O)C(=O)O)C(=O)O)CC1 [Compound 13]
- IC50: 0.951 µM
- Ki: 0.0068 µM

Structure (SMILES): CC(=O)NCCOCCOCCOCCC(=O)NC[C@H]1CC[C@H](C(=O)N[C@@H](Cc2ccc(N=[N+]=[N-])cc2)C(=O)NCCCC[C@H](NC(=O)N[C@@H](CCC(=O)O)C(=O)O)C(=O)O)CC1 [Compound 15]
- IC50: 0.935 µM
- Ki: 0.00668 µM

Structure (SMILES): CC(=O)NCCOCCOCCOCCC(=O)NC[C@H]1CC[C@H](C(=O)N[C@H](Cc2ccccc2)C(=O)NCCCC[C@H](NC(=O)N[C@@H](CCC(=O)O)C(=O)O)C(=O)O)CC1 [Compound 18]
- IC50: 0.54 µM
- Ki: 0.00386 µM

Structure (SMILES): CC(=O)NCCOCCOCCOCCC(=O)NC[C@H]1CC[C@H](C(=O)N[C@@H](CC2CCCCC2)C(=O)NCCCC[C@H](NC(=O)N[C@@H](CCC(=O)O)C(=O)O)C(=O)O)CC1 [Compound 19]
- IC50: 2.16 µM
- Ki: 0.0154 µM

Structure (SMILES): CC(=O)NCCOCCOCCOCCC(=O)NC[C@H]1CC[C@H](C(=O)N[C@@H](CCCC(=O)O)C(=O)NCCCC[C@H](NC(=O)N[C@@H](CCC(=O)O)C(=O)O)C(=O)O)CC1 [Compound 20]
- IC50: 1.49 µM
- Ki: 0.0107 µM

Structure (SMILES): CC(=O)NCCOCCOCCOCCC(=O)NC[C@H]1CC[C@H](C(=O)N[C@@H](Cc2c[nH]c3ncccc23)C(=O)NCCCC[C@H](NC(=O)N[C@@H](CCC(=O)O)C(=O)O)C(=O)O)CC1 [Compound 22]
- IC50: 0.488 µM
- Ki: 0.00349 µM

Structure (SMILES): CC(=O)NCCOCCOCCOCCC(=O)NC[C@H]1CC[C@H](C(=O)N[C@@H](Cc2ccc3ccccc3c2)C(=O)NCCCC[C@H](NC(=O)N[C@@H](Cc2ccc(O)cc2)C(=O)O)C(=O)O)CC1 [Compound 25]
- IC50: 44.6 µM
- Ki: 0.319 µM

Structure (SMILES): CC(=O)NCCOCCOCCOCCC(=O)NC[C@H]1CC[C@H](C(=O)N[C@@H](Cc2ccc3ccccc3c2)C(=O)NCCCC[C@H](NC(=O)N[C@@H](CC(C)C)C(=O)O)C(=O)O)CC1 [Compound 26]
- IC50: 1550 µM
- Ki: 11 µM

- IC50: 191 µM
- Ki: 1.37 µM
Structure (SMILES): CSCC[C@H](NC(=O)N[C@@H](CCCCNC(=O)[C@H](Cc1ccc2ccccc2c1)NC(=O)[C@H]1CC[C@H](CNC(=O)CCOCCOCCOCCNC(C)=O)CC1)C(=O)O)C(=O)O [Compound 27]
